Experimental data: patent EP4596574A1, “GLP-1/GCG/GIP TRIPLE-RECEPTOR AGONIST AND USE THEREOF” (Sunshine Lake Pharma Co., Ltd., priority 2022, dated 2024)
Marks after values point to notes of the source that are not given here.

Key:
[1] = Long-term repeated administration in diet-induced obese C57BL/6 mice (DIO); assay type: in vivo, C57/BL6 mice
Source text: Experimental methods: C57/BL6 mice were randomly divided into a normal group (NFD) and a model group (HFD) at the fifth week of age. The normal group was fed with ordinary maintenance feed, while the other groups were fed with high-fat feed D12492. The body weight and food intake of mice were monitored every 3 weeks. After 16 weeks of feeding, the body weights of mice in the model group and the normal group were (49.0±2.3) g and (31.0±2.0) g, respectively, and the difference between the two groups was statistically significant. […] Body weight and food intake were measured before each administration. After 3 weeks of administration, an intraperitoneal glucose tolerance test was performed. The mice were slaughtered and samples were collected 72 h after the last administration. The liver weight was recorded, and the liver pathological conditions and blood biochemical indexes of each group were tested.

GIPR = target: T1, GIPR (Homo sapiens, UniProt P48546); experiment: In vitro cell activity, cAMP production in HEK293 cells expressing GIPR; assay type: cell-based; conditions: HEK293-GIPR cells, cAMP; read-out: GIPR (EC50)
T1 construct: expressed in transfected cells; host or cells: HEK293 (HEK293-GIPR)
T1 sequence (P48546 22-466): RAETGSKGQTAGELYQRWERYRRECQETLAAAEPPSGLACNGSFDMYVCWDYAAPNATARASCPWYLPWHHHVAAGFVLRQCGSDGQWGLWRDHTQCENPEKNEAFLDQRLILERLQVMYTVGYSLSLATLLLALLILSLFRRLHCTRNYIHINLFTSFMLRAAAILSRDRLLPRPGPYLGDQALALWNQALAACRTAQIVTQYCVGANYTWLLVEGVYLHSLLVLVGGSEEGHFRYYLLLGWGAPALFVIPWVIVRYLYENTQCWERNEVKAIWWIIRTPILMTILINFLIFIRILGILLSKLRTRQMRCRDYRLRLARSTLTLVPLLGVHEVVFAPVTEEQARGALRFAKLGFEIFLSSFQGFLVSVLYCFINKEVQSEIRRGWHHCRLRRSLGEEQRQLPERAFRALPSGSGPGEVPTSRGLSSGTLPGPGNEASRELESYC
Method: After they were completely thawed within 1.5 minutes, the cells were added dropwise into a 15 mL centrifuge tube containing 8 mL of warm culture medium in a clean bench. The tubes were centrifuged at 900 rpm for 5 minutes, the supernatant was discarded, and the cells were resuspended in 1 mL of complete culture medium (by pipetting 15 times). 20 µL of the suspension was immediately taken and mixed with an equal volume of trypan blue. 20 µL was taken to count the number of live cells, and the cells were diluted to 4×10^5 cells/mL with complete culture medium. • 4) The 384-well plate was divided into GLP-1R cell, GCGR cell and GIPR cell areas. The cell suspension was added to the wells of the corresponding area at 5 µL per well using a 12-channel variable-channel adjustable dispenser. […] Then, the diluted cAMP-d2 working solution and anti-cAMP-crytate working solution were mixed evenly in a ratio of 1:1, and 10 µL was added to each well of the sample group. […] In GraphPad Prism 6, the signal ratio and sample concentration were nonlinearly fitted using a four-parameter equation to obtain the EC50 value.

GLP-1R = target: T2, GLP-1R (Homo sapiens, UniProt P43220); experiment: In vitro cell activity, cAMP production in HEK293 cells expressing GLP-1R; assay type: cell-based; conditions: HEK293-GLP-1R cells, cAMP; read-out: GLP-1R (EC50)
T2 construct: expressed in transfected cells; host or cells: HEK293 (HEK293-GLP-1R)
Method: (§1) After they were completely thawed within 1.5 minutes, the cells were added dropwise into a 15 mL centrifuge tube containing 8 mL of warm culture medium in a clean bench. The tubes were centrifuged at 900 rpm for 5 minutes, the supernatant was discarded, and the cells were resuspended in 1 mL of complete culture medium (by pipetting 15 times). 20 µL of the suspension was immediately taken and mixed with an equal volume of trypan blue. 20 µL was taken to count the number of live cells, and the cells were diluted to 4×10^5 cells/mL with complete culture medium. • 4) The 384-well plate was divided into GLP-1R cell, GCGR cell and GIPR cell areas. The cell suspension was added to the wells of the corresponding area at 5 µL per well using a 12-channel variable-channel adjustable dispenser. […] Then, the diluted cAMP-d2 working solution and anti-cAMP-crytate working solution were mixed evenly in a ratio of 1:1, and 10 µL was added to each well of the sample group. The wells were covered with white lids and placed at room temperature in the dark for 1 hour or at 4 °C overnight. • 6) The fluorescence values at 665 nm and 620 nm were detected in a multifunctional microplate reader. In GraphPad Prism 6, the signal ratio and sample concentration were nonlinearly fitted using a four-parameter equation to obtain the EC50 value.

GCGR = target: T3, GCGR (Homo sapiens, UniProt P47871); experiment: In vitro cell activity, cAMP production in HEK293 cells expressing GCGR; assay type: cell-based; conditions: HEK293-GCGR cells, cAMP; read-out: GCGR (EC50)
T3 construct: expressed in transfected cells; host or cells: HEK293 (HEK293-GCGR)
Method: as §1

[2] = 10 nmol/kg s.c. once every 3 days, D7
[3] = 10 nmol/kg s.c. once every 3 days, D10
[4] = 10 nmol/kg s.c. once every 3 days, D13
[5] = 10 nmol/kg s.c. once every 3 days, D16
[6] = 10 nmol/kg s.c. once every 3 days, D19
[7] = 10 nmol/kg s.c. once every 3 days, D22
[8] = 10 nmol/kg s.c. once every 3 days, D25
[9] = 10 nmol/kg s.c. once every 3 days, D28
[10] = long-term administration 10 nmol/kg, 72 h after the last administration
[11] = long-term administration 10 nmol/kg, blood biochemical index

T2 sequence (P43220 24-463, species assumed): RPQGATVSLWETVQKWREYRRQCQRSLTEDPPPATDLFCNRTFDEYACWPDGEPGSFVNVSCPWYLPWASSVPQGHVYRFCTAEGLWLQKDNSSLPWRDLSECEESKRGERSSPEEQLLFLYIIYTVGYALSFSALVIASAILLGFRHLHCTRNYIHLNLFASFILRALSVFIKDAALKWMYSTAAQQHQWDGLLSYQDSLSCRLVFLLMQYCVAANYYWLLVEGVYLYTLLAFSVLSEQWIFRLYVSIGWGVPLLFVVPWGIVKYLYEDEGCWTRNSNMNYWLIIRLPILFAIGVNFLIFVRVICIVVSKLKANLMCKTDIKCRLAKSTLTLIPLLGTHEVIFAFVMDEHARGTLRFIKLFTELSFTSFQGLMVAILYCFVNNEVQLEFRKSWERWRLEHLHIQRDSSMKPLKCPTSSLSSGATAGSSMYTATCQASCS
T3 sequence (P47871 26-477, species assumed): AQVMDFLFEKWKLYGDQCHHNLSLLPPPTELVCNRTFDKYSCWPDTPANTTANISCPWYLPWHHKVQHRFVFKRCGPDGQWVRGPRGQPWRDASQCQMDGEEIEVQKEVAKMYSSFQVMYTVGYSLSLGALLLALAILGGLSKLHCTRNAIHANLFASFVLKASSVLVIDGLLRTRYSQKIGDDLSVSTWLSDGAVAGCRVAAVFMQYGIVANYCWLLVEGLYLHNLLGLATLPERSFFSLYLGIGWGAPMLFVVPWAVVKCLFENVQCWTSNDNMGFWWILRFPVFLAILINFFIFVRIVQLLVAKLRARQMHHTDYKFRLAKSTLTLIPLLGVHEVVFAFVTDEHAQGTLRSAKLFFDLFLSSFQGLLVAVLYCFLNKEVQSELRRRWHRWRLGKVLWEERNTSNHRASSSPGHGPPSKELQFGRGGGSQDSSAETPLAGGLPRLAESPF

semaglutide [reference compound]
Cumulative food intake (g/pcs) D7 [1, 2]: 14.1 g/pcs
Weight gain rate (%) D7 [1, 2]: -8.1±1.7%
Cumulative food intake (g/pcs) D10 [1, 3]: 19.4 g/pcs
Weight gain rate (%) D10 [1, 3]: -10.8±2.2%
Cumulative food intake (g/each) D13 [1, 4]: 25.2 g/each
Weight gain rate (%) D13 [1, 4]: -13.5±3.2%
Cumulative food intake (g/each) D16 [1, 5]: 31.5 g/each
Weight gain rate (%) D16 [1, 5]: -14.2±3.8%
Cumulative food intake (g/each) D19 [1, 6]: 38.1 g/each
Weight gain rate (%) D19 [1, 6]: -14.2±4.1%
Cumulative food intake (g/each) D22 [1, 7]: 45.0 g/each
Weight gain rate (%) D22 [1, 7]: -14.5±4.5%
Cumulative food intake (g/each) D25 [1, 8]: 51.6 g/each
Weight gain rate (%) D25 [1, 8]: -16.5±4.1%
Cumulative food intake (g/each) D28 [1, 9]: 58.9 g/each
Weight gain rate (%) D28 [1, 9]: -18.5±5.1%
Cumulative food intake (g/each) D30 ([1]; 10 nmol/kg s.c. once every 3 days, D30): 63.9^a g/each
Weight gain rate (%) D31 ([1]; 10 nmol/kg s.c. once every 3 days, D31): -17.4±4.9^a %
Cumulative food intake (g/pcs) D0 ([1]; 10 nmol/kg s.c., D0): 2.6 g/pcs
Weight gain rate (%) D0 ([1]; 10 nmol/kg s.c., D0): 0.0±0.0%
Cumulative food intake (g/pcs) D1 ([1]; 10 nmol/kg s.c., D1): 2.9 g/pcs
Weight gain rate (%) D1 ([1]; 10 nmol/kg s.c., D1): -6.8±0.6%
Cumulative food intake (g/pcs) D2 ([1]; 10 nmol/kg s.c., D2): 4.0 g/pcs
Weight gain rate (%) D2 ([1]; 10 nmol/kg s.c., D2): -7.1±1.1%
Cumulative food intake (g/pcs) D3 ([1]; 10 nmol/kg s.c., D3): 6.4 g/pcs
Weight gain rate (%) D3 ([1]; 10 nmol/kg s.c., D3): -5.2±1.3%
Cumulative food intake (g/pcs) D4 ([1]; 10 nmol/kg s.c., D4): 9.3 g/pcs
Weight gain rate (%) D4 ([1]; 10 nmol/kg s.c., D4): -3.8±1.3%
Liver index/% [1, 10]: 3.0±0.0^a %
Liver/g [1, 10]: 1.1±0.1^a g
Weight/g [1, 10]: 38.3±2.9^a g
ALT (U/L) [1, 11]: 45.4±14.6^a U/L
AST (U/L) [1, 11]: 131.2±19.2^a U/L
CHOL (mmol/L) [1, 11]: 4.5±0.6^a mmol/L
TRIGL (mmol/L) [1, 11]: 0.6±0.1^a mmol/L

CC[C@H](C)[C@H](NC(=O)[C@H](Cc1ccccc1)NC(=O)[C@H](C)NC(=O)[C@H](CCCCN)NC(=O)[C@H](CCC(N)=O)NC(=O)[C@H](CCCCN)NC(=O)[C@H](CCCCNC(=O)COCCOCCNC(=O)CC[C@H](NC(=O)CCCCCCCCCCCCCCCCC(=O)O)C(=O)O)NC(=O)[C@H](CCC(=O)O)NC(=O)[C@H](CC(=O)O)NC(=O)[C@H](CC(C)C)NC(=O)[C@H](CC(C)C)NC(=O)[C@@H](NC(=O)[C@H](CO)NC(=O)[C@H](Cc1ccc(O)cc1)NC(=O)[C@H](CC(=O)O)NC(=O)[C@H](CO)NC(=O)[C@@H](NC(=O)[C@](C)(Cc1ccccc1F)NC(=O)[C@@H](NC(=O)CNC(=O)[C@H](CCC(N)=O)NC(=O)C(C)(C)NC(=O)[C@@H](N)Cc1ccc(O)cc1)[C@@H](C)O)[C@@H](C)O)[C@@H](C)CC)C(=O)N[C@@H](CCC(=O)O)C(=O)N[C@@H](Cc1ccc(O)cc1)C(=O)N[C@@H](CC(C)C)C(=O)N[C@@H](CC(C)C)C(=O)N[C@@H](C)C(=O)NCC(=O)NCC(=O)N1CCC[C@H]1C(=O)N[C@@H](CO)C(=O)N[C@@H](CO)C(=O)NCC(=O)N[C@@H](C)C(=O)N1CCC[C@H]1C(=O)N1CCC[C@H]1C(=O)N1CCC[C@H]1C(=O)N[C@@H](CO)C(N)=O [HEC-PT130]
EC50 (GIPR): 0.541 nM
EC50 (GLP-1R): 0.17 nM
EC50 (GCGR): 4.86 nM

CC[C@H](C)[C@H](NC(=O)[C@H](CO)NC(=O)[C@H](Cc1ccc(O)cc1)NC(=O)[C@H](CC(=O)O)NC(=O)[C@H](CO)NC(=O)[C@@H](NC(=O)[C@](C)(Cc1ccccc1F)NC(=O)[C@@H](NC(=O)CNC(=O)[C@H](CCC(N)=O)NC(=O)C(C)(C)NC(=O)[C@@H](N)Cc1ccc(O)cc1)[C@@H](C)O)[C@@H](C)O)C(=O)N[C@@H](CC(C)C)C(=O)N[C@@H](CC(C)C)C(=O)N[C@@H](CC(=O)O)C(=O)N[C@@H](CCC(=O)O)C(=O)N[C@@H](CCCCNC(=O)COCCOCCNC(=O)CC[C@H](NC(=O)CCCCCCCCCCCCCCCCC(=O)O)C(=O)O)C(=O)N[C@@H](CCCNC(=N)N)C(=O)N[C@@H](CCC(N)=O)C(=O)N[C@@H](CCCNC(=N)N)C(=O)N[C@@H](C)C(=O)N[C@@H](Cc1ccccc1)C(=O)N[C@H](C(=O)N[C@@H](CCC(=O)O)C(=O)N[C@@H](Cc1ccc(O)cc1)C(=O)N[C@@H](CC(C)C)C(=O)N[C@@H](CC(C)C)C(=O)N[C@@H](C)C(=O)NCC(=O)NCC(=O)N1CCC[C@H]1C(=O)N[C@@H](CO)C(=O)N[C@@H](CO)C(=O)NCC(=O)N[C@@H](C)C(=O)N1CCC[C@H]1C(=O)N1CCC[C@H]1C(=O)N1CCC[C@H]1C(=O)N[C@@H](CO)C(=O)O)C(C)C [HEC-PT135]
EC50 (GIPR): 0.283 nM
EC50 (GLP-1R): 0.19 nM
EC50 (GCGR): 0.902 nM

CC[C@H](C)[C@H](NC(=O)[C@H](Cc1ccccc1)NC(=O)[C@H](C)NC(=O)[C@H](CCC(N)=O)NC(=O)[C@H](CCC(N)=O)NC(=O)[C@H](C)NC(=O)[C@H](CCCCNC(=O)COCCOCCNC(=O)CC[C@H](NC(=O)CCCCCCCCCCCCCCCCCCC(=O)O)C(=O)O)NC(=O)[C@H](CCC(=O)O)NC(=O)[C@H](CC(=O)O)NC(=O)[C@H](CC(C)C)NC(=O)[C@H](CC(C)C)NC(=O)[C@@H](NC(=O)[C@H](CO)NC(=O)[C@H](Cc1ccc(O)cc1)NC(=O)[C@H](CC(=O)O)NC(=O)[C@H](CO)NC(=O)[C@@H](NC(=O)[C@](C)(Cc1ccccc1F)NC(=O)[C@@H](NC(=O)CNC(=O)[C@H](CCC(N)=O)NC(=O)C(C)(C)NC(=O)[C@@H](N)Cc1ccc(O)cc1)[C@@H](C)O)[C@@H](C)O)[C@@H](C)CC)C(=O)N[C@@H](CCC(=O)O)C(=O)N[C@@H](Cc1ccc(O)cc1)C(=O)N[C@@H](CC(C)C)C(=O)N[C@@H](CC(C)C)C(=O)N[C@@H](CCC(=O)O)C(=O)NCC(=O)NCC(=O)N1CCC[C@H]1C(=O)N[C@@H](CO)C(=O)N[C@@H](CO)C(=O)NCC(=O)N[C@@H](C)C(=O)N1CCC[C@H]1C(=O)N1CCC[C@H]1C(=O)N1CCC[C@H]1C(=O)N[C@@H](CO)C(=O)O [HEC-PT68]
EC50 (GIPR): 0.199 nM
EC50 (GLP-1R): 0.415 nM
EC50 (GCGR): 0.748 nM
